The results in this text go back to US20240336572A1, “SUBSTITUTED INDAZOLE PROPIONIC ACID DERIVATIVE COMPOUNDS AND USES THEREOF” (Pfizer Inc., priority 2023, published 2024).

One assay concerns the target T1, AMPK 111 (Homo sapiens, UniProt Q13131+Q9Y478).
T1 construct: open reading frames encoding the full-length α1, β1 and δ1 subunits of human AMPK; made in house; host or cells: E. coli BL21-CodonPlus (DE3)-RIPL, pET-14b
The assay is described as follows: Biochemical profiling of AMPK activators by AMPK111 (HTRF/TR-FRET assay, SAMS peptide, PP2A dephosphorylation protection). The following applies: for EC50: phosphorylated AMPK 111 (α1β1δ1 as printed), 11 point dilution, duplicate, 4-parameter fit; for Emax: phosphorylated AMPK 111, maximal activation. In general terms: Time-resolved FRET reads energy transfer from a long-lived donor to a nearby acceptor.

The next assay deals with T2, AMPK 221 (Homo sapiens, UniProt O43741+P54646).
T2 construct: open reading frames encoding the full-length α2, β2 and δ1 subunits of human AMPK; made in house; host or cells: E. coli BL21-CodonPlus (DE3)-RIPL, pET-14b
The experiment in a line: Biochemical profiling of AMPK activators by AMPK221 (HTRF/TR-FRET assay, SAMS peptide, PP2A dephosphorylation protection). The following applies: for EC50: phosphorylated AMPK 221 (α2β2δ1), 11 point dilution, duplicate, 4-parameter fit; for Emax: phosphorylated AMPK 221, maximal activation.

T1 sequence (Q13131 whole entry): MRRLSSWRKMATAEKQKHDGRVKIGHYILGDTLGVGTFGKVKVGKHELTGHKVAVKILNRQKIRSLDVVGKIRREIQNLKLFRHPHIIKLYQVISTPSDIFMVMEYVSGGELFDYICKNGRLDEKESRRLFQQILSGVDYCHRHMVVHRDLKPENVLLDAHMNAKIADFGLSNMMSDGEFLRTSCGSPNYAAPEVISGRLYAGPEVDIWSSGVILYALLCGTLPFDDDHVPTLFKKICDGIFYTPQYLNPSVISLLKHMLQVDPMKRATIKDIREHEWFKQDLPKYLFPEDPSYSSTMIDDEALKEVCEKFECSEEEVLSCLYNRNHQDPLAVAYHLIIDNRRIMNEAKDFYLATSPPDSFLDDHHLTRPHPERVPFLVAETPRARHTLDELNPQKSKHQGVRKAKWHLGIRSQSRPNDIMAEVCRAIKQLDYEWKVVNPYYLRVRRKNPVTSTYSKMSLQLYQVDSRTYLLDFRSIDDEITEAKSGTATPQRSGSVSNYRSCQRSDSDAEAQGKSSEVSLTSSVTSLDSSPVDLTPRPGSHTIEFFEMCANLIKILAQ
T1 sequence (Q9Y478 whole entry): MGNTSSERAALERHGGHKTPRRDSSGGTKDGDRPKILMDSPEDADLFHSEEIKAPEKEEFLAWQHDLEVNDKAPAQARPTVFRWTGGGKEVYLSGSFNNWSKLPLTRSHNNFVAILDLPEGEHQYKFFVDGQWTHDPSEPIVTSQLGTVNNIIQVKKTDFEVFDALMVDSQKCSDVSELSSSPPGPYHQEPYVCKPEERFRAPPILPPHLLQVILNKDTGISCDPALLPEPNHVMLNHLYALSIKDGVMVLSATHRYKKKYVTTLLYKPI
T1 sequence (P54619 whole entry partner): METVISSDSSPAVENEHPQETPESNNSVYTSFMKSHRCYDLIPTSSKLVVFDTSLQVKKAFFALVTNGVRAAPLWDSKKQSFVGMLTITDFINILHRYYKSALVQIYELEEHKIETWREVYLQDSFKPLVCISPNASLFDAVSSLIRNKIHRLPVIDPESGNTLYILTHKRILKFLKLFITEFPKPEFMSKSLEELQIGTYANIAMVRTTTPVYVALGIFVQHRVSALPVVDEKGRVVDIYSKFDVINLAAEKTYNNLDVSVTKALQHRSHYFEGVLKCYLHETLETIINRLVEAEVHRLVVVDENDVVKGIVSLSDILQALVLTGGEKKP
T2 sequence (P54646 whole entry): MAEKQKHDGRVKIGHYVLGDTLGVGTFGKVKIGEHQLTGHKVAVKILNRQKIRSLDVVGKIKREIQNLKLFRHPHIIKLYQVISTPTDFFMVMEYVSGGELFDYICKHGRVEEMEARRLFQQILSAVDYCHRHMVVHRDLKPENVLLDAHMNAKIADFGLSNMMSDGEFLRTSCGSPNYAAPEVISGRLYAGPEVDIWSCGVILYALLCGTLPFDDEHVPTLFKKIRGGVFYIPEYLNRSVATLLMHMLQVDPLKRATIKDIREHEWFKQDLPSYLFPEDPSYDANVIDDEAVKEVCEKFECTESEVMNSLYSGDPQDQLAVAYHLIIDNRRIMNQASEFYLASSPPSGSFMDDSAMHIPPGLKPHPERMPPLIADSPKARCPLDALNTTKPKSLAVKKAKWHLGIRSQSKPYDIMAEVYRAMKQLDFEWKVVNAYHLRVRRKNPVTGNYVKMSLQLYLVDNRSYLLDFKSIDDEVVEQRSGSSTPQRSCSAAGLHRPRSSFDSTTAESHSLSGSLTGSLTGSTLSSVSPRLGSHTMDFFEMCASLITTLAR
T2 sequence (O43741 whole entry): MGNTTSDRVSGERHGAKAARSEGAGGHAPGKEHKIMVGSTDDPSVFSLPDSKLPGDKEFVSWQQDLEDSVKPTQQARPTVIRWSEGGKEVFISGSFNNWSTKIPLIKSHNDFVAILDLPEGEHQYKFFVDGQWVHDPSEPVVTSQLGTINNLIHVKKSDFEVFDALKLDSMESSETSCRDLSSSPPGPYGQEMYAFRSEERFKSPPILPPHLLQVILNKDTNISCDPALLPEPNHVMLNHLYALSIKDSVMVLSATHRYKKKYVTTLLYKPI
T2 sequence (P54619 whole entry partner): as the sequence (P54619 whole entry partner) above

As usually defined, the EC50 is the concentration that produces a half-maximal response. For orientation: Emax means the maximal effect, on the per cent scale that the assay sets. On AMPK 111, `Cc1ccc(-c2ccc(-c3cc4c(CCC(=O)O)n[nH]c4cc3Cl)cc2)s1` [Example 56, 3-(6-chloro-5-(4-(5-methylthiophen-2-yl)phenyl)-1H-indazol-3-yl)propanoic acid] displayed an EC50 of 363 nM and an Emax of 48%. At AMPK 221, this compound came in with an EC50 of 477 nM and an Emax of 18%.

At AMPK 111, `O=C(O)CCc1n[nH]c2cc(Cl)c(-c3ccc(-c4cccc(OC(F)F)c4O)cc3)cc12` [Example 57, 3-(6-chloro-5-(3′-(difluoromethoxy)-2′-hydroxy-[1,1′-biphenyl]-4-yl)-1H-indazol-3-yl)propanoic acid] had an EC50 of 103 nM and an Emax of 75%. Besides, at AMPK 221, a half-maximal response (EC50) required 426 nM and the Emax worked out at 63%.

In the case of `O=C(O)CCc1n[nH]c2cc(Cl)c(-c3ccc(-c4csc(CO)c4)cc3)cc12` [Example 58, 3-(6-chloro-5-(4-(5-(hydroxymethyl)thiophen-3-yl)phenyl)-1H-indazol-3-yl)propanoic acid], at AMPK 111, the EC50 turned out to be 215 nM and the Emax was determined as 76%. On AMPK 221, this compound showed an EC50 of 573 nM and an Emax of 57%.

Regarding `COc1nc(-c2ccc(-c3cc4c(CCC(=O)O)n[nH]c4cc3Cl)cc2)cs1` [Example 59, 3-(6-chloro-5-(4-(2-methoxythiazol-4-yl)phenyl)-1H-indazol-3-yl)propanoic acid], on AMPK 111, the EC50 came to 609 nM and the Emax was found to be 30%. Also, at AMPK 221, the EC50 came to 546 nM and the Emax worked out at 13%.

On to `Cc1cscc1-c1ccc(-c2cc3c(CCC(=O)O)n[nH]c3cc2Cl)cc1` [Example 60, 3-(6-chloro-5-(4-(4-methylthiophen-3-yl)phenyl)-1H-indazol-3-yl)propanoic acid], for which the EC50 on AMPK 111 turned out to be 241 nM; at AMPK 221, 532 nM. Further, the Emax at AMPK 111 was 53%; on AMPK 221 it was 21%.

On AMPK 111, `O=C(O)CCc1n[nH]c2cc(Cl)c(-c3ccc(-c4cccc(CO)c4)cc3)cc12` [Example 61, 3-(6-chloro-5-(3′-(hydroxymethyl)-[1,1′-biphenyl]-4-yl)-1H-indazol-3-yl)propanoic acid] displayed an EC50 of 692 nM and an Emax of 55%. At AMPK 221, this compound showed an EC50 of 645 nM and an Emax of 34%.

Take `COc1ccc(C)c(-c2ccc(-c3cc4c(CCC(=O)O)n[nH]c4cc3Cl)cc2)c1O` [Example 62, 3-(6-chloro-5-(2′-hydroxy-3′-methoxy-6′-methyl-[1,1′-biphenyl]-4-yl)-1H-indazol-3-yl)propanoic acid]: the figures for the EC50 at AMPK 111 and at AMPK 221 were 25 nM and 14 nM, respectively. Further, the Emax came out at 72% at AMPK 111 and 57% at AMPK 221.

On AMPK 111, `CSc1ccc(-c2ccc(-c3cc4c(CCC(=O)O)n[nH]c4cc3Cl)cc2)c(O)c1` [Example 63, 3-(6-chloro-5-(2′-hydroxy-4′-(methylthio)-[1,1′-biphenyl]-4-yl)-1H-indazol-3-yl)propanoic acid] yielded an EC50 of 281 nM and an Emax of 56%. At AMPK 221, the EC50 came out at 565 nM and the Emax was found to be 64%.

For the compound `O=C(O)CCc1n[nH]c2cc(Cl)c(-c3ccc(-c4ccc(Cl)cc4O)cc3)cc12` [Example 64, 3-(6-chloro-5-(4′-chloro-2′-hydroxy-[1,1′-biphenyl]-4-yl)-1H-indazol-3-yl)propanoic acid], at AMPK 111, the midpoint of the response, the EC50, lay at 203 nM and the Emax worked out at 76%. Also, at AMPK 221, the EC50 worked out at 617 nM and the Emax worked out at 48%.

At AMPK 111, `O=C(O)CCc1n[nH]c2cc(Cl)c(-c3ccc(-c4cnsc4)cc3)cc12` [Example 65, 3-(6-chloro-5-(4-(isothiazol-4-yl)phenyl)-1H-indazol-3-yl)propanoic acid] had an EC50 of 263 nM and an Emax of 79%. In addition, at AMPK 221, a half-maximal response (EC50) required 795 nM and the Emax was 58%.

On AMPK 111, `O=C(O)CCc1n[nH]c2cc(Cl)c(-c3ccc(-c4csc(CO)n4)cc3)cc12` [Example 66, 3-(6-chloro-5-(4-(2-(hydroxymethyl)thiazol-4-yl)phenyl)-1H-indazol-3-yl)propanoic acid] had an EC50 of 365 nM and an Emax of 74%. On AMPK 221, this compound gave an EC50 of 1090 nM and an Emax of 63%.

With `O=C(O)CCc1n[nH]c2cc(Cl)c(-c3ccc(-c4c(Cl)ccc(F)c4O)cc3)cc12` [Example 67, 3-(6-chloro-5-(6′-chloro-3′-fluoro-2′-hydroxy-[1,1′-biphenyl]-4-yl)-1H-indazol-3-yl)propanoic acid], on AMPK 111, the EC50 is 69 nM and the Emax was 85%. Further, on AMPK 221, the EC50 was determined as 953 nM and the Emax came out at 63%.

With `O=C(O)CCc1n[nH]c2cc(Cl)c(-c3ccc(-c4ccc5c(c4O)OCC5)cc3)cc12` [Example 68, 3-(6-chloro-5-(4-(7-hydroxy-2,3-dihydrobenzofuran-6-yl)phenyl)-1H-indazol-3-yl)propanoic acid], the EC50 at AMPK 111 amounted to 29 nM; at AMPK 221, 19 nM. The Emax was 71% at AMPK 111 and 69% at AMPK 221.

On to `O=C(O)CCc1n[nH]c2cc(Cl)c(-c3ccc(-c4ccc(OC(F)F)cc4O)cc3)cc12` [Example 69, 3-(6-chloro-5-(4′-(difluoromethoxy)-2′-hydroxy-[1,1′-biphenyl]-4-yl)-1H-indazol-3-yl)propanoic acid], for which the EC50 turned out to be 480 nM on AMPK 111 and 1150 nM on AMPK 221. Further, the Emax worked out at 73% at AMPK 111 and 58% on AMPK 221.

In the case of `O=C(O)CCc1n[nH]c2cc(Cl)c(-c3ccc(-c4cc(F)ccc4O)cc3)cc12` [Example 70, 3-(6-chloro-5-(5′-fluoro-2′-hydroxy-[1,1′-biphenyl]-4-yl)-1H-indazol-3-yl)propanoic acid], on AMPK 111, the EC50 came to 285 nM and the Emax came out at 74%. At AMPK 221, the EC50 worked out at 1090 nM and the Emax is 49%.

As to `O=C(O)CCc1n[nH]c2cc(Cl)c(-c3ccc(-c4ccc(F)c(F)c4O)cc3)cc12` [Example 71, 3-(6-chloro-5-(3′,4′-difluoro-2′-hydroxy-[1,1′-biphenyl]-4-yl)-1H-indazol-3-yl)propanoic acid], on AMPK 111, the EC50 amounted to 279 nM and the Emax is 73%. At AMPK 221, this compound came in with an EC50 of 994 nM and an Emax of 60%.

Take `NC(=O)COc1ccc(-c2ccc(-c3cc4c(CCC(=O)O)n[nH]c4cc3Cl)cc2)cc1` [Example 72, 3-(5-(4′-(2-amino-2-oxoethoxy)-[1,1′-biphenyl]-4-yl)-6-chloro-1H-indazol-3-yl)propanoic acid]: on AMPK 111, a half-maximal response (EC50) required 99 nM and the maximal response (Emax) amounted to 103%. Also, at AMPK 221, the EC50 amounted to 1830 nM and the Emax turned out to be 114%.

Consider `O=C(O)CCc1n[nH]c2cc(Cl)c(-c3ccc(-c4ccccc4O)cc3)nc12` [Example 73, 3-(6-chloro-5-(2′-hydroxy-[1,1′-biphenyl]-4-yl)-1H-pyrazolo[4,3-b]pyridin-3-yl)propanoic acid], for which, on AMPK 111, the EC50 turned out to be 26 nM and the Emax was found to be 86%. In addition, at AMPK 221, the EC50 amounted to 2110 nM and the Emax was 30%.

At AMPK 111, `COc1cccc(-c2ccc(-c3cc4c(CCCC(=O)O)n[nH]c4cc3Cl)cc2)c1O` [Example 74, 4-(6-chloro-5-(2′-hydroxy-3′-methoxy-[1,1′-biphenyl]-4-yl)-1H-indazol-3-yl)butanoic acid] gave an EC50 of 92 nM and an Emax of 80%. Further, at AMPK 221, the EC50 is 66 nM and the Emax came to 69%.

On AMPK 111, `Cc1cccc(O)c1-c1ccc(-c2cc3c(CCCC(=O)O)n[nH]c3cc2Cl)cc1` [Example 75, 4-(6-chloro-5-(2′-hydroxy-6′-methyl-[1,1′-biphenyl]-4-yl)-1H-indazol-3-yl)butanoic acid] came in with an EC50 of 74 nM and an Emax of 75%. In addition, at AMPK 221, the EC50 turned out to be 229 nM and the Emax came out at 63%.

For the compound `CNC(=O)c1ccc(-c2ccc(-c3cc4c(CCC(=O)O)n[nH]c4cc3Cl)cc2)cc1` [Example 76, 3-(6-chloro-5-(4′-(methylcarbamoyl)-[1,1′-biphenyl]-4-yl)-1H-indazol-3-yl)propanoic acid], on AMPK 111, a half-maximal response (EC50) required 6 nM and the Emax stood at 67%. On AMPK 221, this compound came in with an EC50 of 13 nM and an Emax of 53%.

Take `O=C(O)CCc1n[nH]c2cc(Cl)c(-c3ccc(-c4ccc(C(=O)NCCCO)cc4)cc3)cc12` [Example 77, 3-(6-chloro-5-(4′-((3-hydroxypropyl)carbamoyl)-[1,1′-biphenyl]-4-yl)-1H-indazol-3-yl)propanoic acid]: at AMPK 111, the EC50 came to 70 nM and the Emax was found to be 66%. Moreover, on AMPK 221, it took 82 nM to reach a half-maximal effect (EC50) and the Emax stood at 58%.

In the case of `COc1ccc(C)c(-c2ccc(-c3cc4c(CCCC(=O)O)n[nH]c4cc3Cl)cc2)c1O` [Example 78, 4-(6-chloro-5-(2′-hydroxy-3′-methoxy-6′-methyl-[1,1′-biphenyl]-4-yl)-1H-indazol-3-yl)butanoic acid], the results for the EC50 at AMPK 111 and on AMPK 221 were 93 nM and 87 nM, respectively. Further, the Emax was determined as 78% at AMPK 111 and 66% on AMPK 221.

For `O=C(CCc1n[nH]c2cc(Cl)c(-c3ccc(-c4ccccc4O)cc3)cc12)OC1OC(C(=O)O)C(O)C(O)C1O` (stereo not drawn) [Example 79, 6-((3-(6-chloro-5-(2′-hydroxy-[1,1′-biphenyl]-4-yl)-1H-indazol-3-yl)propanoyl)oxy)-3,4,5-trihydroxytetrahydro-2H-pyran-2-carboxylic acid], at AMPK 111, the response was half-maximal at 39 nM (EC50) and the Emax was found to be 67%. In addition, at AMPK 221, the response was half-maximal at 29 nM (EC50) and the Emax stood at 27%.
